These results are taken from patent US20130109734A1 (Metabolex, Inc., priority 2010, published 2013).

pEC50: −log10 of the molar value. Bounds are passed on as bounds.

The target of one test is T1, human GPR120 (Homo sapiens, UniProt Q5NUL3).
T1 construct: host or cells: HEK293 cells co-expressing Gqi5
T1 sequence (Q5NUL3 1-361): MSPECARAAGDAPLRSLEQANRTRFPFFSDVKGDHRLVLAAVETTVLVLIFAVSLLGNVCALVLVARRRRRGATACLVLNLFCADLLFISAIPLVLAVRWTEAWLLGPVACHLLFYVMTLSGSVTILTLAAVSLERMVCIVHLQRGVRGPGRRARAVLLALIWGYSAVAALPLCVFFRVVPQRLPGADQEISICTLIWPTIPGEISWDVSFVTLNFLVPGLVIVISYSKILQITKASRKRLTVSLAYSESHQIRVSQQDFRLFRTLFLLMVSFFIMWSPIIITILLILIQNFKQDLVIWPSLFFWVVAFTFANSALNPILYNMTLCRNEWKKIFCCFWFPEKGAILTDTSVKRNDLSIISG
Kind of test: Intracellular Ca2+ assay in human GPR120 stable cell line (HEK293 co-expressing Gqi5), Flexstation. Type of test: cell-based. As to conditions: % activity at 5 μM compared to the maximal activity of GW9508 at 6.7 μM (=100%); human GPR120 cells, Ca2+ fluorescence. In short, it runs like this: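 HEK293 cells stably co-expressing Gqi5 and Flag-tagged human GPR120, loaded with Calcium 4 dye in HBSS/HEPES pH 7.4 at 37 °C; compounds at eight concentrations, 0.00001–20 μM, fluorescence (485/525 nm) read 90 s. EC50 from Max−Min change; percent activity relative to GW9508 maximum at 6.7 μM.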
`[2H]C([2H])(Oc1ccc(CCC(=O)O)c(CC)c1F)c1cc(F)cc2c1OC(C)(C)C2` [Example 228, 3-(4-(dideuterio(5-fluoro-2,2-dimethyl-2,3-dihydrobenzofuran-7-yl)methoxy)-3-fluoro-2-ethylphenyl)propanoic acid]: the “% Activity (GW9508 Reference Compound)” value worked out at 119.11%.

Consider `CC1(C)Cc2cc(Cl)cc(COc3ccc(SCC(=O)O)cc3)c2O1` [Example 59, 2-((4-((5-chloro-2,2-dimethyl-2,3-dihydrobenzofuran-7-yl)methoxy)phenyl)thio)-acetic acid], for which the “% Activity (GW9508 Reference Compound)” value was determined as 117.58%.

For the compound `CC(Cc1cccc(OCc2cc(Cl)cc3c2OC(C)(C)C3)c1)C(=O)O` (stereo not shown) [Example 251, 3-(3-((5-chloro-2,2-dimethyl-2,3-dihydrobenzofuran-7-yl)methoxy)phenyl)-2-methylpropanoic acid], the “% Activity (GW9508 Reference Compound)” value amounted to 61.14%.

`CC1(C)Cc2cc(Cl)cc(COc3c(F)cc(C4CC4CC(=O)O)cc3F)c2O1` (stereo not shown) [Example 41, 2-(2-(4-((5-chloro-2,2-dimethyl-2,3-dihydrobenzofuran-7-yl)methoxy)-3,5-difluorophenyl)cyclopropyl)acetic acid]: the “% Activity (GW9508 Reference Compound)” value turned out to be 116.46%.

Turning to `[2H]C([2H])(C(=O)O)C([2H])([2H])c1ccc(OCc2cc(F)cc3c2OC(C)(C)C3)c(F)c1CC` [Example 243, 3-(2-ethyl-3-fluoro-4-((5-fluoro-2,2-dimethyl-2,3-dihydrobenzofuran-7-yl)methoxy)phenyl)-2,2,3,3-tetradeuteriopropanoic acid], the “% Activity (GW9508 Reference Compound)” value came out at 155.23%.

`Cc1nc2cccc(COc3c(F)cc(CC(C)C(=O)O)cc3F)c2o1` (stereo not shown) [Example 261, 3-(3,5-difluoro-4-((2-methylbenzo[d]oxazol-7-yl)methoxy)phenyl)-2-methylpropanoic acid]: the “% Activity (GW9508 Reference Compound)” value was found to be 108.78%.

For `[2H]C([2H])(Oc1ccc(CC(C)C(=O)O)cc1F)c1cc(F)cc2c1OC(C)(C)C2` (stereo not shown) [Example 230, 3-(4-(dideuterio(5-fluoro-2,2-dimethyl-2,3-dihydrobenzofuran-7-yl)methoxy)-3-fluorophenyl)-2-methylpropanoic acid], the “% Activity (GW9508 Reference Compound)” value is 86.25%.

Turning to `C[C@H](Cc1ccc(OCc2cc(F)cc3c2OC(C)(C)C3)cc1)C(=O)O` [Example 65, (R)-3-(4-((5-fluoro-2,2-dimethyl-2,3-dihydrobenzofuran-7-yl)methoxy)phenyl)-2-methylpropanoic acid], the “% Activity (GW9508 Reference Compound)” value came out at 141.04%.

Regarding `CCOC(Cc1cc(F)c(OCc2cc(F)cc3c2OC(C)(C)C3)c(F)c1)C(=O)O` (stereo not shown) [Example 69, 3-(3,5-difluoro-4-((5-fluoro-2,2-dimethyl-2,3-dihydrobenzofuran-7-yl)methoxy)phenyl)-2-ethoxypropanoic acid], the “% Activity (GW9508 Reference Compound)” value is 78.46%.

As to `[2H]C([2H])(C(=O)O)C([2H])([2H])c1ccc(OCc2cc(Cl)cc3c2OC(C)(C)C3)c(F)c1` [Example 241, 3-(4-((5-chloro-2,2-dimethyl-2,3-dihydrobenzofuran-7-yl)methoxy)-3-fluorophenyl)-2,2,3,3-tetradeuteriopropanoic acid], the “% Activity (GW9508 Reference Compound)” value turned out to be 159.62%.

On to `[2H]C1([2H])c2cc(Cl)cc(COc3ccc(CC(C)C(=O)O)cc3C(F)(F)F)c2OC1(C)C` (stereo not shown) [Example 147, 3-(4-((3,3-dideuterio-5-chloro-2,2-dimethyl-2,3-dihydrobenzofuran-7-yl)methoxy)-3-(trifluoromethyl)phenyl)-2-methylpropanoic acid], for which the “% Activity (GW9508 Reference Compound)” value amounted to 138.65%.

On to `CC1(C)Cc2cc(F)cc(COc3c(F)cc(C4CC4C(=O)O)cc3F)c2O1` (stereo not shown) [Example 19, 2-(3,5-difluoro-4-((5-fluoro-2,2-dimethyl-2,3-dihydrobenzofuran-7-yl)methoxy)phenyl)cyclopropanecarboxylic acid], for which the “% Activity (GW9508 Reference Compound)” value is listed as 125.5%.

Turning to `CC1(C)Cc2cc(F)cc(COc3c(F)cc(CC4CC4C(=O)O)cc3F)c2O1` (single isomer, unassigned) [Example 184A, 2-(3,5-difluoro-4-((5-fluoro-2,2-dimethyl-2,3-dihydrobenzofuran-7-yl)methoxy)benzyl)cyclopropanecarboxylic acid], the “% Activity (GW9508 Reference Compound)” value worked out at 95.58%.

As to `CCc1cc(OCc2cc(F)cc3c2OC(C)(C)C3)c(F)cc1CCC(=O)O` [Example 220, 3-(2-ethyl-5-fluoro-4-((5-fluoro-2,2-dimethyl-2,3-dihydrobenzofuran-7-yl)methoxy)phenyl)propanoic acid], the “% Activity (GW9508 Reference Compound)” value came to 115.86%.

For `CC1(C)Cc2cc(F)cc(COc3cc(Cl)c(CCC(=O)O)c(Cl)c3)c2O1` [Example 197, 3-(2,6-dichloro-4-((5-fluoro-2,2-dimethyl-2,3-dihydrobenzofuran-7-yl)methoxy)phenyl)propanoic acid], the “% Activity (GW9508 Reference Compound)” value is on record as 151.44%.

For `CC(Cc1ccc(OCc2cc(F)cc3c2OC(C)(C)C3)cc1)C(=O)NO` (stereo not shown) [Example 264, 3-(4-((5-fluoro-2,2-dimethyl-2,3-dihydrobenzofuran-7-yl)methoxy)phenyl)-N-hydroxy-2-methylpropanamide], the “% Activity (GW9508 Reference Compound)” value is 110.24%.

Consider `CC(Cc1ccc(OCc2cc(Cl)cc3c2OC(C)(C)C3)c(CN(C)C)c1)C(=O)O` (stereo not shown) [Example 88, 3-(4-((5-chloro-2,2-dimethyl-2,3-dihydrobenzofuran-7-yl)methoxy)-3-((dimethylamino)methyl)phenyl)-2-methylpropanoic acid], for which the “% Activity (GW9508 Reference Compound)” value is recorded as 118.92%.

Consider `CC(Cc1ccc(OCc2ccc(F)c3c2OC(C)(C)C3)c(F)c1)C(=O)O` (stereo not shown) [Example 29, 3-(3-fluoro-4-((4-fluoro-2,2-dimethyl-2,3-dihydrobenzofuran-7-yl)methoxy)phenyl)-2-methylpropanoic acid], for which the “% Activity (GW9508 Reference Compound)” value is recorded as 133.5%.

`CCN(CC)c1cc(COc2ccc(CC(C)C(=O)O)cc2)c2c(c1)CC(C)(C)O2` (stereo not shown) [Example 89, 3-(4-((5-(diethylamino)-2,2-dimethyl-2,3-dihydrobenzofuran-7-yl)methoxy)phenyl)-2-methylpropanoic acid]: the “% Activity (GW9508 Reference Compound)” value amounted to 82.28%.

For `CC1(C)Cc2cc(F)cc(COc3ccc4c(c3)CC[C@@H]4CC(=O)O)c2O1` [Example 178, (R)-2-(5-((5-fluoro-2,2-dimethyl-2,3-dihydrobenzofuran-7-yl)methoxy)-2,3-dihydro-1H-inden-1-yl)acetic acid], the “% Activity (GW9508 Reference Compound)” value is reported as 106%.

As to `CC1(C)Cc2cc(F)cc(COc3ccc(C4CC4C(=O)O)cc3)c2O1` (single isomer, unassigned) [Example 131A, 2-(4-((5-fluoro-2,2-dimethyl-2,3-dihydrobenzofuran-7-yl)methoxy)phenyl)cyclopropanecarboxylic acid], the “% Activity (GW9508 Reference Compound)” value is 103.75%.

For `CC(C)Oc1ccc(Cl)cc1COc1ccc2c(c1)CCC2CC(=O)O` (stereo not shown) [Example 258, 2-(5-((5-chloro-2-isopropoxybenzyl)oxy)-2,3-dihydro-1H-inden-1-yl)acetic acid], the “% Activity (GW9508 Reference Compound)” value is 139.95%.

For `CC1(C)Cc2cc(F)cc(COc3ccc4c(c3)CCCC4CC(=O)O)c2O1` (stereo not shown) [Example 153, 2-(6-((5-fluoro-2,2-dimethyl-2,3-dihydrobenzofuran-7-yl)methoxy)-1,2,3,4-tetrahydronaphthalen-1-yl)acetic acid], the “% Activity (GW9508 Reference Compound)” value is recorded as 106.81%.

Consider `CC(Cc1ccc(OCc2cc(F)cc3c2OC(C)(C)C3)cc1)C(=O)O` (stereo not shown) [Example 16, 3-(4-((5-fluoro-2,2-dimethyl-2,3-dihydrobenzofuran-7-yl)methoxy)phenyl)-2-methylpropanoic acid], for which the “% Activity (GW9508 Reference Compound)” value amounted to 110.8294%.

For the compound `CC(Cc1ccc(OCc2cc(OC(F)(F)F)cc3c2OC(C)(C)C3)cc1)C(=O)O` (stereo not shown) [Example 124, 3-(4-((2,2-dimethyl-5-(trifluoromethoxy)-2,3-dihydrobenzofuran-7-yl)methoxy)phenyl)-2-methylpropanoic acid], the “% Activity (GW9508 Reference Compound)” value is 131.64%.

Take `CC1(C)Cc2cc(Cl)cc(COc3ccc4c(c3)CC(C(=O)O)C4)c2O1` (stereo not shown) [Example 112, 5-((5-chloro-2,2-dimethyl-2,3-dihydrobenzofuran-7-yl)methoxy)-2,3-dihydro-1H-indene-2-carboxylic acid]: the “% Activity (GW9508 Reference Compound)” value is reported as 115.42%.

In the case of `CC1(C)Cc2c(F)ccc(COc3c(F)cc(C4CC4C(=O)O)cc3F)c2O1` (stereo not shown) [Example 27, 2-(3,5-difluoro-4-((4-fluoro-2,2-dimethyl-2,3-dihydrobenzofuran-7-yl)methoxy)phenyl)cyclopropanecarboxylic acid], the “% Activity (GW9508 Reference Compound)” value is 143.8489%.

With `CC(Cc1cc(F)c(OCc2cccc3c2OCC3)c(F)c1)C(=O)O` (stereo not shown) [Example 3, 3-(4-((2,3-dihydrobenzofuran-7-yl)methoxy)-3,5-difluorophenyl)-2-methylpropanoic acid], the “% Activity (GW9508 Reference Compound)” value is reported as 123.7995%.

The same test, now with this note: human GPR120 cells, Ca2+ fluorescence; reference compounds, typical value.
Take “4-[[(3-phenoxyphenyl)methyl]amino]benzene propanoic acid [GW9508, reference compound]”: the “concentration at which activity reached a maximum” value is “approximately 6.7 μM”.

Still in this test, the particulars now being: human GPR120 stably expressing cells, Ca2+ fluorescence (Max-Min), eight concentrations 0.00001 to 20 μM.
`CC1(C)Cc2cc(Cl)cc(COc3c(F)cc(C4CC4CC(=O)O)cc3F)c2O1` (stereo not shown) [Example 41, 2-(2-(4-((5-chloro-2,2-dimethyl-2,3-dihydrobenzofuran-7-yl)methoxy)-3,5-difluorophenyl)cyclopropyl)acetic acid]: the pEC50 (usually the negative decadic logarithm of the EC50, by convention in mol/L) is < 5.00.

For `CCOC(Cc1cc(F)c(OCc2cc(F)cc3c2OC(C)(C)C3)c(F)c1)C(=O)O` (stereo not shown) [Example 69, 3-(3,5-difluoro-4-((5-fluoro-2,2-dimethyl-2,3-dihydrobenzofuran-7-yl)methoxy)phenyl)-2-ethoxypropanoic acid], the pEC50 was < 5.00.
